According to the kinase profiling compilation of Christmann-Franck et al. (2016):
Values joined by “and” are separate entries in the source; they are usually repeats but may differ in a detail not shown here. Identical values can stand only once.

Legend:
Assay in all cases: radiometric filter-binding kinase assay, Kinase HotSpot
Settings in all cases: compound 0.5 µM; ATP 10 µM
[1] = target: CSK (human) (UniProt P41240)
[2] = target: MAP3K9 (human) (UniProt P80192)
[3] = target: ITK (human) (UniProt Q08881)
[4] = target: ADRBK1 (human) (UniProt P25098)
[5] = target: ROS1 (human) (UniProt P08922)
Chain of ROS1 (human) (P08922 whole entry, looked up): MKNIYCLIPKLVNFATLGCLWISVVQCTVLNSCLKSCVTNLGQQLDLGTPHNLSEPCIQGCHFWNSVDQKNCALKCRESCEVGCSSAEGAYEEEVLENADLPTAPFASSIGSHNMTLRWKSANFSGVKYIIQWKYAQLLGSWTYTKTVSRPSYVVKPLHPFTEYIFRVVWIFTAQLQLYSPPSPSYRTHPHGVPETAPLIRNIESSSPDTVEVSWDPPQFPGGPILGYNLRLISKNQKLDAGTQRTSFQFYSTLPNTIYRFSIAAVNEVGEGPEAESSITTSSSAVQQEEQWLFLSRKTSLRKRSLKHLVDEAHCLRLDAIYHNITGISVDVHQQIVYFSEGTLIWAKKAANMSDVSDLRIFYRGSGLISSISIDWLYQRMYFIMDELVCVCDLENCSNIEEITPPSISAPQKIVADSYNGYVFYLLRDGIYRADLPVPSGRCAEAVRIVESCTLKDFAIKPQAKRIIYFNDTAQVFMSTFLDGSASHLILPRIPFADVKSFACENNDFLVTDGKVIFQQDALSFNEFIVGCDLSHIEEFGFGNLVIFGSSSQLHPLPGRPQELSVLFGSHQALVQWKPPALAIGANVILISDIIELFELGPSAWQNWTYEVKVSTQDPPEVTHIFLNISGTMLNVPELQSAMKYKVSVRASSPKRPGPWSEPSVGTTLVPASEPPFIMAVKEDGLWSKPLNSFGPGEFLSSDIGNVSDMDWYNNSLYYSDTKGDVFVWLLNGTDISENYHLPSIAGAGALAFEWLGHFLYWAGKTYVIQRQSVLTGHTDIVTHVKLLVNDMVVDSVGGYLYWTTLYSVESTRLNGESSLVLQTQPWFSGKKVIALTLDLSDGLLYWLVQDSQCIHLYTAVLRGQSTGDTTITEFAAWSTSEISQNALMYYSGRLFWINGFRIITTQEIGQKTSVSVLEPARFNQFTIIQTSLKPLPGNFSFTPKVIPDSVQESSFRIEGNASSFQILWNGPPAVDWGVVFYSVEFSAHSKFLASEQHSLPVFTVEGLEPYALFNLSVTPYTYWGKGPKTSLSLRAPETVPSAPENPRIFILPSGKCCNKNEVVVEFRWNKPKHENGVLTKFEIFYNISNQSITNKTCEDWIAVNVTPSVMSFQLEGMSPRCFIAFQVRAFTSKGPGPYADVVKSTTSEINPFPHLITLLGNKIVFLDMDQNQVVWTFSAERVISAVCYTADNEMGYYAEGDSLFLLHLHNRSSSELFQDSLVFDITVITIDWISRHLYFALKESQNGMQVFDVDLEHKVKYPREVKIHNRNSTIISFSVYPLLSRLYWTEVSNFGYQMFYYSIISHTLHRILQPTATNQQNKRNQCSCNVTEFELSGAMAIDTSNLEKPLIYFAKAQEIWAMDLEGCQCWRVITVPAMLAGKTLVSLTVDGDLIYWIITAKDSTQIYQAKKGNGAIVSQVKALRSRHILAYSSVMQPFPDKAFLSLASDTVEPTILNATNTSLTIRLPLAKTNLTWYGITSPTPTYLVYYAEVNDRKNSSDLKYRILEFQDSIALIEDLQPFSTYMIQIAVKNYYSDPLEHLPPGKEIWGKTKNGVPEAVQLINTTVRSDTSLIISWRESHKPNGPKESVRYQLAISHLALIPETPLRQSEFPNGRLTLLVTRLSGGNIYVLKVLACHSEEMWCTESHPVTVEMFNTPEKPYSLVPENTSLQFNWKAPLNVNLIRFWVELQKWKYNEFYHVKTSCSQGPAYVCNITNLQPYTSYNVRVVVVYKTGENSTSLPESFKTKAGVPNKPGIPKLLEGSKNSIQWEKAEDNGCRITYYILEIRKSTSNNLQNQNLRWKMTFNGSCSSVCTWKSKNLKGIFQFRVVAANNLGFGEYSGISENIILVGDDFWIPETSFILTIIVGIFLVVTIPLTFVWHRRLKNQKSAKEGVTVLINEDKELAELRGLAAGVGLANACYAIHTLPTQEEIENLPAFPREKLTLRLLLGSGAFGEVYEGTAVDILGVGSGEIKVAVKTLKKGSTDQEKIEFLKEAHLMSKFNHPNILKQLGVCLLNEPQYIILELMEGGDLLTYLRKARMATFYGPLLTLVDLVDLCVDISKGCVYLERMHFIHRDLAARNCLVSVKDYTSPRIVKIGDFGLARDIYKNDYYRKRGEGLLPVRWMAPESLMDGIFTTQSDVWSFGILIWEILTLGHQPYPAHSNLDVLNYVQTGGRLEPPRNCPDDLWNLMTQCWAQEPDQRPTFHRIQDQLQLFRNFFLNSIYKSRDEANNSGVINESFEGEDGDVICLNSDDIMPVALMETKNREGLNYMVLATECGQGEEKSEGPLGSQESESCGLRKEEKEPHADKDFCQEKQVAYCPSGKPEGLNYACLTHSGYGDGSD

[6] = target: AXL (human) (UniProt P30530)
Chain of AXL (human) (P30530 whole entry, looked up): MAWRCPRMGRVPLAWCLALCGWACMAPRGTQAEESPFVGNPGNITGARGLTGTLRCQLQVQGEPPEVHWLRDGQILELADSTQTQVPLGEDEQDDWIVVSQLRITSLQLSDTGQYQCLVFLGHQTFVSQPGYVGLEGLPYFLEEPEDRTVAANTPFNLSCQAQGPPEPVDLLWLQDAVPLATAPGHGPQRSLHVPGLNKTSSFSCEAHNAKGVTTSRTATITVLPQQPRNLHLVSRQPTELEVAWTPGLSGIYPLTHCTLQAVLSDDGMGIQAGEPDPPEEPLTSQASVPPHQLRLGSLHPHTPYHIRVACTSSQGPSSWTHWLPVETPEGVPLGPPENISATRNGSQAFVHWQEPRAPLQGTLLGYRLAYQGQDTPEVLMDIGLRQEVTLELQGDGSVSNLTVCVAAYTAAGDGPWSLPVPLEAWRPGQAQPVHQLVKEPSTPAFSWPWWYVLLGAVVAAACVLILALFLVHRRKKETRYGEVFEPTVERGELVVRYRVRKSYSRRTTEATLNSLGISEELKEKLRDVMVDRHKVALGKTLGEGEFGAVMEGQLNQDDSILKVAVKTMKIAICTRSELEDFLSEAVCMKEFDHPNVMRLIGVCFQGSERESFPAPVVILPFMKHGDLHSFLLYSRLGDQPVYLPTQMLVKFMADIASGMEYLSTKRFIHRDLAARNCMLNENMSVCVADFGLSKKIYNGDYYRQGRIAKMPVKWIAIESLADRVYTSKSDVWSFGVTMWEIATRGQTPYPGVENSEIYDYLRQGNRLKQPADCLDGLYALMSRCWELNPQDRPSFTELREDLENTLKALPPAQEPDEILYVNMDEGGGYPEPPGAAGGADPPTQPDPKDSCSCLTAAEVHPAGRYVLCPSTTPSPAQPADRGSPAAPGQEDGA

[7] = target: MAPK1 (human) (UniProt P28482)
[8] = target: PRKG1 (human) (UniProt Q13976)
[9] = target: DAPK3 (human) (UniProt O43293)
[10] = target: MERTK (human) (UniProt Q12866)
[11] = target: STK39 (human) (UniProt Q9UEW8)
[12] = target: MAP2K2 (human) (UniProt P36507)
[13] = target: MAP3K11 (human) (UniProt Q16584)
[14] = target: CDK1 CCNA2 (human) (UniProt P06493+P20248)
[15] = target: MELK (human) (UniProt Q14680)
Chain of MELK (human) (Q14680 whole entry, looked up): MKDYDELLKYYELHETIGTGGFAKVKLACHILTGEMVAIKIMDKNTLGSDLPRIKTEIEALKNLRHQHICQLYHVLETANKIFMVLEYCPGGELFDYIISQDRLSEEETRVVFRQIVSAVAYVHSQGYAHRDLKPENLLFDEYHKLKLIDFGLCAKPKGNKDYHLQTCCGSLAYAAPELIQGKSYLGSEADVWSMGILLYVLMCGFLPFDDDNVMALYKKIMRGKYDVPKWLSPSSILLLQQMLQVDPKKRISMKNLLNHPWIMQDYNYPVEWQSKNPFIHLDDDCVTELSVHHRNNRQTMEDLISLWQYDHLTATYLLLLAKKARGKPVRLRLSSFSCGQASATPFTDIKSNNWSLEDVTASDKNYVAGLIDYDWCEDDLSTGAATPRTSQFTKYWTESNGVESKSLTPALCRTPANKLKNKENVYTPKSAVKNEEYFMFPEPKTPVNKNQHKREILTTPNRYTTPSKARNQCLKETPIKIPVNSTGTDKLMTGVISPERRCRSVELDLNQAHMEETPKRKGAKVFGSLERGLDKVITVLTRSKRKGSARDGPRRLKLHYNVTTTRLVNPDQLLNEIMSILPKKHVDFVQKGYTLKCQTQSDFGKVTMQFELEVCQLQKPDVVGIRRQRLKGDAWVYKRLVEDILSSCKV

[16] = target: DYRK2 (human) (UniProt Q92630)
[17] = target: PRKCZ (human) (UniProt Q05513)
[18] = target: TEK (human) (UniProt Q02763)
[19] = target: ACVR1B (human) (UniProt P36896)
Chain of ACVR1B (human) (P36896 whole entry, looked up): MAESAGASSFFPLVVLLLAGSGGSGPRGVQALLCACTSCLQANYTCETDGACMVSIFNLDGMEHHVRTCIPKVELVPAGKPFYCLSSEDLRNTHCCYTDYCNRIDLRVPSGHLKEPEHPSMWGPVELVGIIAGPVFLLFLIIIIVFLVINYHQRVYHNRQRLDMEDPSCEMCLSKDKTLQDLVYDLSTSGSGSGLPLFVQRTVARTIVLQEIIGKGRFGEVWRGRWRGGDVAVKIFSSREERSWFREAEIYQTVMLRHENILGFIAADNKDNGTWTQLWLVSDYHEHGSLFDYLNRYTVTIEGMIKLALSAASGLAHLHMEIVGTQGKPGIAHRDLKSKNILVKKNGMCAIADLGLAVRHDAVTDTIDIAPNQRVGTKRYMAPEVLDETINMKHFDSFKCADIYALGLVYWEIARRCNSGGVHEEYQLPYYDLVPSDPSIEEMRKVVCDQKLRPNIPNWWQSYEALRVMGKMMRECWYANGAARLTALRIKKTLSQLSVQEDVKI

[20] = target: PHKG1 (human) (UniProt Q16816)
[21] = target: EPHA8 (human) (UniProt P29322)
[22] = target: GRK7 (human) (UniProt Q8WTQ7)
[23] = target: PLK1 (human) (UniProt P53350)
[24] = target: STK33 (human) (UniProt Q9BYT3)
Chain of STK33 (human) (Q9BYT3 whole entry, looked up): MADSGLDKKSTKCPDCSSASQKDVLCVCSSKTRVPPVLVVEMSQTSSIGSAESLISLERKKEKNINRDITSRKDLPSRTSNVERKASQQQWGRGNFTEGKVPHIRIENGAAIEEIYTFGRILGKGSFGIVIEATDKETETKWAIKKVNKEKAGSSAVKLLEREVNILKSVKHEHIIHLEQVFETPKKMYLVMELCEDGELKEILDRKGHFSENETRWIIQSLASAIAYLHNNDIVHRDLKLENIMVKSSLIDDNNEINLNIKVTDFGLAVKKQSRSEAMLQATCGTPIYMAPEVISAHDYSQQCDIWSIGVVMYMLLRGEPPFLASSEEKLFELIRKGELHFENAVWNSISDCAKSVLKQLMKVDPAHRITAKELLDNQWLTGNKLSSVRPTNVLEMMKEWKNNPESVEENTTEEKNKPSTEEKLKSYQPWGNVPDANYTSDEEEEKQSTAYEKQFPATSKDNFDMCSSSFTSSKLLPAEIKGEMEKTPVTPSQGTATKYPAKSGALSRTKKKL

[25] = target: TGFBR2 (human) (UniProt P37173)
[26] = target: DDR2 (human) (UniProt Q16832)
[27] = target: EPHA1 (human) (UniProt P21709)
[28] = target: PTK6 (human) (UniProt Q13882)
[29] = target: DYRK4 (human) (UniProt Q9NR20)
[30] = target: BMX (human) (UniProt P51813)
[31] = target: GSG2 (human) (UniProt Q8TF76)
[32] = target: GRK4 (human) (UniProt P32298)
[33] = target: ULK1 (human) (UniProt O75385)
[34] = target: ULK2 (human) (UniProt Q8IYT8)
[35] = target: PRKD3 (human) (UniProt O94806)
[36] = target: CAMK4 (human) (UniProt Q16566)
[37] = target: GSK3B (human) (UniProt P49841)
[38] = target: TAOK2 (human) (UniProt Q9UL54)
[39] = target: NEK7 (human) (UniProt Q8TDX7)
[40] = target: CHEK2 (human) (UniProt O96017)
[41] = target: NTRK1 (human) (UniProt P04629)
[42] = target: MAP3K5 (human) (UniProt Q99683)

`O=c1c2ccccc2[nH]c(=S)n1CCN1CCC(=C(c2ccc(F)cc2)c2ccc(F)cc2)CC1` was tested, and the residual activity [1] was 119%, the residual activity [2] was 111% and the residual activity [3] was 97.1%. It also gave a residual activity [4] of 100%, a residual activity [5] of 98.8% and a residual activity [6] of 91.7%. The residual activity [7] was 102%, the residual activity [8] was 102% and 95.7% and the residual activity [9] was 102%. For the same compound, the residual activity [10] was 97%, the residual activity [11] was 96.8% and the residual activity [12] was 101%. It also gave a residual activity [13] of 95.2%, a residual activity [14] of 96.8% and a residual activity [15] of 104%. For the same compound, the residual activity [16] was 95.4%, the residual activity [17] was 102% and the residual activity [18] was 96.1%. For the same compound, the residual activity [19] was 103%, the residual activity [20] was 101% and the residual activity [21] was 102%. The residual activity [22] was 111%, the residual activity [23] was 100% and the residual activity [24] was 106%. It also gave a residual activity [25] of 119%, a residual activity [26] of 97.6% and a residual activity [27] of 107%. It also gave a residual activity [28] of 100%, a residual activity [29] of 97.5% and a residual activity [30] of 85.5%. For the same compound, the residual activity [31] was 95.4%, the residual activity [32] was 107% and the residual activity [33] was 98.1%. The residual activity [34] was 96.5%, the residual activity [35] was 101% and the residual activity [36] was 94.7%. The residual activity [37] was 112%, the residual activity [38] was 109% and the residual activity [39] was 100%. It also gave a residual activity [40] of 106%, a residual activity [41] of 97% and a residual activity [42] of 98.1%.

With `Cn1cc(/C=C2\C(=O)Nc3ccc(S(N)(=O)=O)cc32)c2ccccc21` the residual activity [1] was 89.3%, the residual activity [2] was 28.1% and the residual activity [3] was 21.4%. For the same compound, the residual activity [4] was 100%, the residual activity [5] was 82.2% and the residual activity [6] was 49.2%. The residual activity [7] was 98.2%, the residual activity [8] was 81.1% and 87.2% and the residual activity [9] was 94.1%. It also gave a residual activity [10] of 45.9%, a residual activity [11] of 79.3% and a residual activity [12] of 94.7%. It also gave a residual activity [13] of 9.89%, a residual activity [14] of 56.9% and a residual activity [15] of 63%. It also gave a residual activity [16] of 85.5%, a residual activity [17] of 105% and a residual activity [18] of 95.8%. The residual activity [19] was 98.4%, the residual activity [20] was 20.6% and the residual activity [21] was 83.4%. It also gave a residual activity [22] of 20.9%, a residual activity [23] of 92.1% and a residual activity [24] of 46.3%. It also gave a residual activity [25] of 101%, a residual activity [26] of 100% and a residual activity [27] of 101%. It also gave a residual activity [28] of 80.2%, a residual activity [29] of 73.7% and a residual activity [30] of 77%. The residual activity [31] was 93.1%, the residual activity [32] was 40.4% and the residual activity [33] was 27.5%. For the same compound, the residual activity [34] was 72.3%, the residual activity [35] was 76.4% and the residual activity [36] was 96.4%. It also gave a residual activity [37] of 98.4%, a residual activity [38] of 86.4% and a residual activity [39] of 101%. The residual activity [40] was 1.3%, the residual activity [41] was 6.15% and the residual activity [42] was 53.2%.

`COc1cccc(-c2cc(=O)c3ccccc3o2)c1N` gave a residual activity [1] of 83.7%, a residual activity [2] of 93.2% and a residual activity [3] of 96.5%. The residual activity [4] was 99.6%, the residual activity [5] was 97.5% and the residual activity [6] was 127%. For the same compound, the residual activity [7] was 97.1%, the residual activity [8] was 108% and 111% and the residual activity [9] was 101%. The residual activity [10] was 98%, the residual activity [11] was 86.8% and the residual activity [12] was 69.2%. For the same compound, the residual activity [13] was 95.9%, the residual activity [14] was 83.8% and the residual activity [15] was 94%. It also gave a residual activity [16] of 92.5%, a residual activity [17] of 99.1% and a residual activity [18] of 93.1%. For the same compound, the residual activity [19] was 92.5%, the residual activity [20] was 92.9% and the residual activity [21] was 96.3%. It also gave a residual activity [22] of 103%, a residual activity [23] of 88.2% and a residual activity [24] of 98.2%. For the same compound, the residual activity [25] was 115%, the residual activity [26] was 92% and the residual activity [27] was 99.7%. It also gave a residual activity [28] of 92.6%, a residual activity [29] of 108% and a residual activity [30] of 103%. It also gave a residual activity [31] of 95.7%, a residual activity [32] of 104% and a residual activity [33] of 104%. It also gave a residual activity [34] of 109%, a residual activity [35] of 94.3% and a residual activity [36] of 104%. The residual activity [37] was 95.7%, the residual activity [38] was 96% and the residual activity [39] was 94.7%. It also gave a residual activity [40] of 98.8%, a residual activity [41] of 99.9% and a residual activity [42] of 103%.

`COc1cc2ncnc(Nc3ccc(O)c(Br)c3)c2cc1OC` gave a residual activity [1] of 91.6%, a residual activity [2] of 80.1% and a residual activity [3] of 92.8%. The residual activity [4] was 99%, the residual activity [5] was 65.7% and the residual activity [6] was 89.4%. For the same compound, the residual activity [7] was 102%, the residual activity [8] was 87.1% and 88.9% and the residual activity [9] was 99.1%. It also gave a residual activity [10] of 87.7%, a residual activity [11] of 87.4% and a residual activity [12] of 86.2%. It also gave a residual activity [13] of 83.7%, a residual activity [14] of 101% and a residual activity [15] of 83.4%. The residual activity [16] was 60%, the residual activity [17] was 93% and the residual activity [18] was 93.8%. It also gave a residual activity [19] of 105%, a residual activity [20] of 71.9% and a residual activity [21] of 88.3%. The residual activity [22] was 96.4%, the residual activity [23] was 98.8% and the residual activity [24] was 80.7%. It also gave a residual activity [25] of 105%, a residual activity [26] of 119% and a residual activity [27] of 80.4%. It also gave a residual activity [28] of 20.1%, a residual activity [29] of 101% and a residual activity [30] of 95.3%. For the same compound, the residual activity [31] was 84.8%, the residual activity [32] was 105% and the residual activity [33] was 87.2%. For the same compound, the residual activity [34] was 104%, the residual activity [35] was 72.8% and the residual activity [36] was 95.6%. It also gave a residual activity [37] of 92%, a residual activity [38] of 95.8% and a residual activity [39] of 101%. It also gave a residual activity [40] of 51%, a residual activity [41] of 96.4% and a residual activity [42] of 98.6%.
